What was measured:
NF-κB [1] = test: NF-κB SEAP reporter assay in THP-1-Blue NF-κB cells, Pam3CSK4 stimulated; type: cell-based; conditions: Table 21; THP-1-Blue cells, 1 ng/ml Pam3CSK4, 24 h; read-out: NF-κB Pam3SCK4 IC50
Procedure: (§1) THP-1-Blue NF-κB cells (InvivoGen) carrying a stable integrated NF-κB-inducible secreted embryonic alkaline phosphatase (SEAP) reporter construct were plated at a concentration of 1×10^5 cells per well. The cells were stimulated with Pam3CSK4 (1 ng/ml) or hIL1B (1 ng/ml). After 10-20 minutes, the cells were then treated with vehicle (DMSO) or serial dilutions of the test compounds (10 doses tested for each test compound, with a […] starting at 1 μM or 3 μM) with a final volume of 200 μL for 24 hours at 37 °C. After 24 hours, the cells were centrifuged and 20 μL supernatant was incubated with 180 μL QUANTI-Blue reagent at 37 °C for 30-60 minutes. The levels of NF-κB-induced was measured in a microplate reader at 620 nm.
as §1, with “1 mM” for “1 μM”, “3 mM)” for “3 μM)”, “200 mL” for “200 μL”, “20 mL” for “20 μL”, “180 mL” for “180 μL”, “NF-κB-induced gene expression were” for “NF-κB-induced was”

NF-κB [2] = test: NF-κB SEAP reporter assay in THP-1-Blue NF-κB cells, hIL1B stimulated; type: cell-based; conditions: Table 21; THP-1-Blue cells, 1 ng/ml hIL1B, 24 h; read-out: NF-κB IL1B IC50
Procedure: as §1
as §1, with “1 mM” for “1 μM”, “3 mM)” for “3 μM)”, “200 mL” for “200 μL”, “20 mL” for “20 μL”, “180 mL” for “180 μL”, “NF-κB-induced gene expression were” for “NF-κB-induced was”

FLT3 = biological target: T1, FLT3 (Homo sapiens, UniProt P36888); test: RBC HotSpot kinase inhibition assay, FLT3; type: biochemical; conditions: Table 17; isolated kinase, 33P-ATP, 2 h
T1 sequence (P36888 27-993): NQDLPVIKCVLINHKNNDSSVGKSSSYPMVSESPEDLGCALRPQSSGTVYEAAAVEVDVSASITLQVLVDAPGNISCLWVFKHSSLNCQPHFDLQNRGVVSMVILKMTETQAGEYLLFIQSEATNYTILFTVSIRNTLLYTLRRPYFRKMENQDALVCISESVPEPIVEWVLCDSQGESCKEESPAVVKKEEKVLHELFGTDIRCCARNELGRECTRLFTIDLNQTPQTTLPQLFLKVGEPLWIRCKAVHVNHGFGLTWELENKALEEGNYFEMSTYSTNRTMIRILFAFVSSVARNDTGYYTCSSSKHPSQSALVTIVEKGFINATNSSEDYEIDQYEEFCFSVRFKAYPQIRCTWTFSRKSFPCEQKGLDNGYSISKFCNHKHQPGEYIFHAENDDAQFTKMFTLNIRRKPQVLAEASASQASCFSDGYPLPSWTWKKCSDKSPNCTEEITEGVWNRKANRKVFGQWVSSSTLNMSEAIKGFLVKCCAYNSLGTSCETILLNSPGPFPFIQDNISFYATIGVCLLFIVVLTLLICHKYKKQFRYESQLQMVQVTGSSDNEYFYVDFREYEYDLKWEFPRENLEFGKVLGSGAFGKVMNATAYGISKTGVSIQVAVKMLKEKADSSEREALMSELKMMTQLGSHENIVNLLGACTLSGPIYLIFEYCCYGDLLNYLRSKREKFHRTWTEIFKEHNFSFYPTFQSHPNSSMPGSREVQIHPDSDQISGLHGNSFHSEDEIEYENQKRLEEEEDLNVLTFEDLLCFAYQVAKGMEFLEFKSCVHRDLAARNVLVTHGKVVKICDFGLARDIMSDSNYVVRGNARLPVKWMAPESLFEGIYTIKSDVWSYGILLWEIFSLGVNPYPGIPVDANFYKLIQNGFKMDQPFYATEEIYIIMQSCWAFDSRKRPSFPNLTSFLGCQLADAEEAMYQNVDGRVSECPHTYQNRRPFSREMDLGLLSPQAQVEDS
Text: (§2) This assay uses the isolated kinase enzyme. This assay is very useful for determining competition of the inhibitor for ATP and/or substrates and for measuring the kinetics of enzyme inhibition. […] Unlike kinase binding assays that measure competition for ATP, the HotSpot Kinase Assay is a functional assay that measures catalytic activity; as such it measures relative functional potency regardless of the mechanism of enzyme inhibition. This assay uses the form of the various enzymes that are easiest to express, which may not necessarily be the form of the enzyme that exist in the cell. (Sometimes the carboxy terminus has been truncated to aid in expression, or, if it is a receptor kinase, the enzyme itself is isolated from the other parts of the receptor that are involved in regulating kinase activity.)
(§3) The reagent used was as follows: Base Reaction buffer; 20 mM Hepes (pH 7.5), 10 mM MgCl2, 1 mM EGTA, 0.01% Brij35, 0.02 mg/ml BSA, 0.1 mM Na3VO4, 2 mM DTT, 1% DMSO. Required cofactors were added individually to each kinase reaction.
(§4) The reaction procedure was as follows: • 1) Substrates were prepared in freshly prepared Reaction Buffer. • 2) Any required cofactors were delivered to the substrate solution above. • 3) Kinase was delivered into the substrate solution and gently mixed. • 4) Compounds were delivered in 100% DMSO into the kinase reaction mixture by Acoustic technology (Echo550; nanoliter range), followed by incubation for 20 min at room temp. • 5) ^33P-ATP was delivered into the reaction mixture to initiate the reaction. • 6) The mixture was incubated for 2 hours at room temperature. • 7) Kinase activity was detected by P81 filter-binding method.
as §2, with “Although not wishing to be limited by theory, it is believed that sometimes” for “(Sometimes”, “activity.” for “activity.)”
(§5) The reagent used was as follows: Base Reaction buffer; 20 mM Hepes (pH 7.5), 10 mM MgCl2, 1 mM EGTA, 0.01% Brij35, 0.02 mg/ml BSA, 0.1 mM Na3 VO4, 2 mM DTT, 1% DMSO.
(§6) Required cofactors were added individually to each kinase reaction.
as §4, with “33P-ATP” for “^33P-ATP”

IRAK4 = biological target: T2, IRAK4 (Homo sapiens, UniProt Q9NWZ3); test: RBC HotSpot kinase inhibition assay, IRAK4; type: biochemical; conditions: Table 17; isolated kinase, 33P-ATP, 2 h
T2 sequence (Q9NWZ3 1-460): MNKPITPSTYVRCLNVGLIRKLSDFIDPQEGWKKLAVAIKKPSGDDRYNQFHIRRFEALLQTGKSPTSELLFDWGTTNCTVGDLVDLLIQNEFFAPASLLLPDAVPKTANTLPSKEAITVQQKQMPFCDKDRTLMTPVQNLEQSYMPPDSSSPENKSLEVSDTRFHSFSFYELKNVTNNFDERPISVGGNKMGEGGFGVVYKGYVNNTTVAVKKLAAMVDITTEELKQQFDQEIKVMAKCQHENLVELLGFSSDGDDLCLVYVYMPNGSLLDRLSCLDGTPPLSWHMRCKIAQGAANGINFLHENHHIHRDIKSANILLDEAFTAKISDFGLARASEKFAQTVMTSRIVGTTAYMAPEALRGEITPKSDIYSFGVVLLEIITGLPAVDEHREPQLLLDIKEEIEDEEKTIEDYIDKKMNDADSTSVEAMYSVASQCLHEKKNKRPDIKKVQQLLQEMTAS
Text: as §2, §3, §4
as §2, with “Although not wishing to be limited by theory, it is believed that sometimes” for “(Sometimes”, “activity.” for “activity.)”
as §5, §6
as §4, with “33P-ATP” for “^33P-ATP”

IRAK1 = IRAK1 (Homo sapiens, UniProt P51617); test: RBC HotSpot kinase inhibition assay, IRAK1; type: biochemical; conditions: Table 17; isolated kinase, 33P-ATP, 2 h
IRAK1, sequence (P51617 whole entry): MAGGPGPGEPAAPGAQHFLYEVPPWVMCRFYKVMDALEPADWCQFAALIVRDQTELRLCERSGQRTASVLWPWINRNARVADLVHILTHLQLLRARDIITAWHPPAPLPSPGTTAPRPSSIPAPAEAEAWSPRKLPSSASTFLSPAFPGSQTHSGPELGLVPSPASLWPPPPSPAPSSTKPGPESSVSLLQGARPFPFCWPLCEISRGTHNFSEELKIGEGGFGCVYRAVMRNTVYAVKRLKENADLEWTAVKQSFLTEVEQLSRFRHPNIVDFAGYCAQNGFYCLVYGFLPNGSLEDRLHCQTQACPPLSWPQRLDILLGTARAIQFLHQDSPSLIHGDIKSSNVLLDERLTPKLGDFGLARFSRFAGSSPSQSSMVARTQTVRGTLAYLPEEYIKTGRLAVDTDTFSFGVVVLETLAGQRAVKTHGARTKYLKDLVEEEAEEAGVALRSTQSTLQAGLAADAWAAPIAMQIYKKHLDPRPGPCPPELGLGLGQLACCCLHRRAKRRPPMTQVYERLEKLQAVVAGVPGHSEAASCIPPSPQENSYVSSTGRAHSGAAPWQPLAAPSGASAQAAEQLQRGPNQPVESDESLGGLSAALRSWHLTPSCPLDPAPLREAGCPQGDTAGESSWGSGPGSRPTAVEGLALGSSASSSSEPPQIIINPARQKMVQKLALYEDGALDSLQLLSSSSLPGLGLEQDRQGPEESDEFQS
Text: as §2, §3, §4
as §2, with “Although not wishing to be limited by theory, it is believed that sometimes” for “(Sometimes”, “activity.” for “activity.)”
as §5, §6
as §4, with “33P-ATP” for “^33P-ATP”

MOLM14 F691L cells = test: MOLM14 F691L cell viability (Cell Titer Glo); type: cell-based; conditions: Homo sapiens, MOLM-14, Table 22, 48 h
Procedure: (§7) Both cell lines have activated FLT3 receptors, each of which carry additional resistance mutations in the kinase domain (D835Y and F691L, respectively).
(§8) MOLM14 D835Y and MOLM14 F691L cells were grown in RPMI-1640 media supplemented with 20% fetal bovine serum (FBS). For viability/cytotoxicity assessments, cells were seeded into 1536-well white polystyrene tissue culture-treated Greiner plates using a Multidrop Combi dispenser (ThermoFisher), in final volume 5 μL of growth media per well, at a density of 1000 cells per well. After cell addition, 23 nL of test compound were transferred into individual wells (22 doses tested for each test compound, with a 1:2 dilution series starting at 10 μM) via a 1536 pin-tool. Bortezomib (final concentration 2.3 μM) was used as a positive control for cell cytotoxicity. Plates were incubated for 48 hours at standard incubator conditions covered by a stainless steel gasketed lid to prevent evaporation. 48 hours post compound addition, 3 μL of Cell Titer Glo (Promega) were added to each well and plates were incubated at room temperature for 15 minutes with the stainless-steel lid in place. Luminescence readings were taken using a Viewlux imager (PerkinElmer) with a 2 second exposure time per plate.

MOLM14 D835Y cells = test: MOLM14 D835Y cell viability (Cell Titer Glo); type: cell-based; conditions: Homo sapiens, MOLM-14, Table 22, 48 h
Procedure: as §7, §8
This cell line has activated FLT3 receptors, which carries an additional resistance mutation in the kinase domain at D835Y.
as §8, with “D835Y” for “D835Y and MOLM14 F691L”, “mL” for “μL”, “mM)” for “μM)”

Row | IC50 (NF-κB [1]) [nM] | IC50 (NF-κB [2]) [nM] | IC50 (FLT3) [nM] | IC50 (IRAK4) [nM] | IC50 (IRAK1) [nM] | IC50 (MOLM14 F691L cells) [nM] | IC50 (MOLM14 D835Y cells) [nM] | SMILES
1 | 173 | 128 | < 0.5 | 4 | 44 | – | – | COc1cn2ncc(-c3ccnc(N[C@@H]4CCCNC4)n3)c2nc1C1CC1 [Compound 9a, (R)-4-(5-cyclopropyl-6-methoxypyrazolo[1,5-a]pyrimidin-3-yl)-N-(piperidin-3-yl)pyrimidin-2-amine]
2 | – | – | 8 | 127 | 365 | 1790 | 159 | COc1cn2ncc(-c3ccnc(N[C@@H]4CCCNC4)n3)c2nc1C(C)(C)O [Compound 2a, (R)-2-(6-methoxy-3-(2-(piperidin-3-ylamino)pyrimidin-4-yl)pyrazolo[1,5-a]pyrimidin-5-yl)propan-2-ol]

Reference: patent US20260374773A1, “MULTI-CYCLIC IRAK AND FLT3 INHIBITING COMPOUNDS AND USES THEREOF” (CHILDREN'S HOSPITAL MEDICAL CENTER, priority 2022, published 2026)
